Reference: publication PMC7504466, “In-Vitro and In-Silico Evaluations of Heterocyclic-Containing Diarylpentanoids as Bcl-2 Inhibitors Against LoVo Colorectal Cancer Cells” (Molecules, 2020)
pIC50: −log10 of the molar value.

What was measured:
LoVo cells [1] = experiment: MTT cytotoxicity assay, LoVo cells; format: cell-based; conditions: Homo sapiens, 72 h post-treatment, read-out: IC50 (µM) KRAS LoVo
Method: (§1) The in-vitro cytotoxic activity of the synthesized compounds on seven human CRC cell lines including KRAS (T84, SW620, LoVo) and BRAF (HT29, NCI-H508, RKO and LS411N) mutated cells were determined by MTT assay as previously described. The IC50 values obtained are summarized in Table 2 in which 5-FU and normal human dermal fibroblasts (NHDF) were used as controls. Meanwhile, a heatmap (Figure 3) was also generated using GraphPad Prism v7.0 (GraphPad Software, La Jolla, CA, USA) to visualize the cytotoxic trends of synthesized compounds graphically.
(§2) A panel of KRAS (T84, SW620 and LoVo) and BRAF (HT29, NCI-H508, RKO and LS411N) mutated human CRC cell lines were grown in Dulbecco’s modified Eagle’s medium (DMEM) containing 10% fetal bovine serum (FBS) and 1% penicillin/streptomycin at 37 °C under 5% CO2 while NHDF cells were cultured in DMEM with 5% FBS under the same condition. The culture medium was replenished every two days until the cells reached 80–90% confluency for further usage. All cell lines (T84, ATCC®CCL-248™; SW620, ATCC®CCL-227™; LoVo, ATCC®CCL-229™; HT-29, ATCC®HTB-38; NCI-H508, ATCC®CCL-253™; RKO, ATCC®CRL-2577; LS411N, ATCC®CRL-2159; NHDF, ATCC® PCS-201-010™) were purchased from American Type culture Collections (ATCC, Manassas, VA, USA).
(§3) LoVo cells (1.5–5 × 10^3 cells/well) were seeded into a 96 well plate and incubated at 37 °C and 5% CO2 atmosphere for 24 h. On the following day, the cell media were replaced with 100 µL of test compounds at various concentration. The final concentration of DMSO in the well is 0.1%. After 72 h of incubation, culture medium was removed and 100 µL of MTT (thiazoyl blue tertrazolium bromide) solution (0.5 mg/mL in culture media) was added. The resultant plates were then further incubated at 37 °C for 4 h. Upon completion, the MTT solution was removed and the formazan salts formed were dissolved in 100 µL of DMSO. The absorbance was recorded with a microplate reader at 570 nm. The IC50 values of tested compounds were calculated from three independent experiments.

[2] = system: normal human dermal fibroblasts (NHDF); experiment: MTT cytotoxicity assay, normal human dermal fibroblasts; format: cell-based; conditions: 72 h post-treatment
Method: as §1, §2, §3

LoVo cells [3] = experiment: Colony formation assay; format: cell-based, human; conditions: 0.625-5 µM, 7 days post-treatment
Method: LoVo cells (1 × 10^3 cells/well) were seeded into a 6-well plate and incubated at 37 °C and 5% CO2 atmosphere overnight. After incubation, the culture media were replaced with 3 mL of test compounds at various concentration and further incubated for seven days. Upon completion, cells were washed with PBS and fixed with 4% paraformaldehyde for 15 min followed by cell staining with 0.5% (w/v) crystal violet for 20 min. The resultant plates were then washed with tap water and dried at room temperature. Upon drying, the plate image was photographed.

LoVo cells [4] = experiment: Cell cycle analysis (flow cytometry, propidium iodide); format: cell-based, human; conditions: 2.5 and 5 µM, 24 h
Method: LoVo cells (1 × 10^5 cells/well) were seeded into a 6-well plate and incubated at 37 °C and 5% CO2 atmosphere overnight. The seeded cells were then treated with different concentrations of tested compounds for 24 h. Upon completion, cells were trypsinized and washed with PBS followed by fixation with 70% ethanol overnight at 4 °C. Then, the fixed cells were centrifuged at 160× g for 5 min and the resultant cell pellet was washed twice with PBS. Subsequently, 20 μL of DNAse-free RNAse A solution (1 mg/mL) was added to the cell-containing PBS and further incubated for 15 min. Upon completion, 10 μL of propidium iodide staining buffer (10 mg/mL) was added and the resulting mixture was further incubated for 20 min at 4 °C in the dark. Lastly, samples were analyzed with a flow-cytometer (ACEA Biosciences, Inc., San Diego, CA, USA) at the PE channel. The values presented are the means ± SD of three independent experiments.

LoVo cells [5] = experiment: Cell apoptosis analysis (Annexin V-PE/7-AAD flow cytometry); format: cell-based, human
Method: LoVo cells (1 × 10^5 cells/well) were seeded into a 6-well plate and incubated at 37 °C and 5% CO2 atmosphere overnight. The seeded cells were then treated with different concentrations of tested compounds for 24, 48 and 72 h. After treatments, cells were trypsinized and washed with PBS followed by the addition of 1× binding buffer (500 μL), Annexin V-PE (5 μL) and 7-AAD (5 μL) solutions. The resulting mixture was then incubated in the dark at 4 °C for 20 min. Upon completion, the mixture was analysed with a flow-cytometer at the PE and APC channel. The values presented are the means ± SD of three independent experiments.

Bad = experiment: Western blot, Bad; format: cell-based, human; conditions: 5 µM, LoVo cells, detectable only after 48 h
Method: Lovo cells (1.5 × 10^4 cells/cm^2) were seeded in a T75 flask and incubated at 37 °C and 5% CO2 atmosphere overnight. The seeded cells were then treated with selected compounds at 5 µM of 2e for 24 h, 48 h, and 72 h. After treatment, the cells were harvested and lysed with phenylmethanesulfonyl fluoride (PMSF)-containing cell lysis buffer. The lysates were then centrifuged at 13,300× g for 15 min and the supernatant was collected. Protein concentrations of all samples were determined using a BCA assay kit (Thermo Scientific Inc., Waltham, MA, USA). Equal amounts of protein were electrophoresed in 12% and 20% SDS-polyacrylamide gel (SDS-PAGE), and electro-transferred onto a 0.22-μm polyvinyldene difluoride membrane. Each membrane was blocked with 5% (w/v) skim milk at room temperature for 1 h followed by overnight incubation with specific primary antibodies (1:1000) at 4 °C. Subsequently, the respective membrane was washed thrice with TBST (0.05% (v/v) of tween-20) followed by 1 h incubation with secondary antibody (1:10,000). Upon completion, the membrane was washed thrice with 1X Tris-Buffered Saline, 0.1% Tween® 20 Detergent (TBST) and the immune reactive bands were developed using SuperSignal West Dura Extended Duration Substrate (Thermo Scientific Inc., Waltham, MA, USA). […]

O=C1C(=Cc2ccccc2Br)CSCC1=Cc1ccccc1Br [Compound 2e, 3,5-Bis(2-bromobenzylidene)tetrahydro-4H-thiopyran-4-one]
IC50 (LoVo cells [1]): 1 µM | pIC50 [2]: 5.15 | colony formation of LoVo cells (LoVo cells [3]): inhibit the colony formation of LoVo cells in a dose-dependent manner | cell cycle effect (LoVo cells [4]): induce G2/M-phase cell arrest | lowest in vitro effective dose against LoVo cells (LoVo cells [5]): 2.5 µM | cellular apoptosis (annexin V) (LoVo cells [5]; 0.625 and 1.25 µM): minimal insignificant effects | cellular apoptosis (annexin V) (LoVo cells [5]; 2.5 and 5 µM, 24-72 h): could induce cellular apoptosis | Bad expression (Bad): up-regulation
